Values after ≈ are worked out from the molar mass of the structure shown.
What was measured:
[1] = test system: Aeromonas enteropelogenes; assay: Ratio of Kcat Km for Aeromonas enteropelogenes Beta-lactamase TRU1
[2] = test system: Aeromonas enteropelogenes; assay: Ratio of Kcat Km for Aeromonas enteropelogenes Beta-lactamase TRU1 assessed as steady state compound hydrolysis rate
[3] = test system: Aeromonas enteropelogenes; assay: Activity of Aeromonas enteropelogenes Beta-lactamase TRU1
[4] = test system: Aeromonas enteropelogenes; assay: Activity of Aeromonas enteropelogenes Beta-lactamase TRU1 assessed as steady state compound hydrolysis rate
[5] = test system: Aeromonas enteropelogenes; assay: Antimicrobial activity against Aeromonas enteropelogenes ATCC 49803 producing endogenous class C beta-lactamase TRU-1; assay type: functional
[6] = test system: Escherichia coli; assay: Antimicrobial activity against Escherichia coli TOP10; assay type: functional
[7] = test system: Escherichia coli; assay: Antimicrobial activity against Escherichia coli NI540 carrying cloned class C beta-lactamase TRU-1 gene; assay type: functional
[8] = test system: Aeromonas caviae; assay: Activity of Aeromonas caviae Beta-lactamase CAV1
[9] = test system: Aeromonas enteropelogenes; assay: (§1) Inhibition of Aeromonas enteropelogenes Beta-lactamase TRU1
[10] = test system: Escherichia coli K-12; assay: Ratio of Kcat Km for Escherichia coli K-12 Beta-lactamase AmpC
[11] = test system: Escherichia coli K-12; assay: Activity of Escherichia coli K-12 Beta-lactamase AmpC
[12] = test system: Aeromonas caviae; assay: Ratio of Kcat Km for Aeromonas caviae Beta-lactamase CAV1
[13] = test system: Aeromonas enteropelogenes; assay: Antimicrobial activity against Aeromonas enteropelogenes M1 hyperproducing beta-lactamase AmpC; assay type: functional
[14] = as §1

Cc1nnc(SCC2=C(C(=O)O)N3C(=O)[C@@H](NC(=O)Cn4cnnn4)[C@H]3SC2)s1
kcat/Km [1]: 4.6 ×10³ /M/s
kcat/Km [2]: 3.1 ×10³ /M/s
Km [3]: 120 µM
kcat [3]: 0.55 s⁻¹
Km [4]: 80 µM
kcat [4]: 0.25 s⁻¹

CC1=C(C(=O)O)N2C(=O)[C@@H](NC(=O)[C@H](N)c3ccccc3)[C@H]2SC1
kcat/Km [1]: 9.3 ×10⁶ /M/s
Km [3]: 17 µM
kcat [3]: 160 s⁻¹

CO[C@@]1(NC(=O)Cc2cccs2)C(=O)N2C(C(=O)O)=C(COC(N)=O)CS[C@@H]21 [CEFOXITIN]
MIC [5]: 8 µg/mL (≈ 18.7 µM)
MIC [6]: 4 µg/mL (≈ 9.36 µM)
kcat/Km [1]: 3.5 ×10⁷ /M/s
MIC [7]: 128 µg/mL (≈ 299 µM)
Km [8]: 0.4 µM
kcat [8]: 0.5 s⁻¹
Km [9]: 0.025 µM
kcat/Km [10]: 3 ×10⁵ /M/s
kcat [3]: 0.88 s⁻¹
Km [11]: 0.65 µM
kcat [11]: 0.2 s⁻¹
kcat/Km [12]: 1.3 ×10⁶ /M/s
MIC [13]: 32 µg/mL (≈ 74.9 µM)

CO/N=C(\C(=O)N[C@@H]1C(=O)N2C(C(=O)O)=C(CSc3nc(=O)c(O)nn3C)CS[C@H]12)c1csc(N)n1
kcat/Km [1]: 7 ×10⁵ /M/s
Km [9]: 6 µM
kcat [3]: 0.042 s⁻¹

O=C(Cc1cccs1)N[C@@H]1C(=O)N2C(C(=O)[O-])=C(C[n+]3ccccc3)CS[C@H]12
kcat/Km [1]: 1.7 ×10⁵ /M/s
Km [8]: 770 µM
kcat [8]: 300 s⁻¹
kcat/Km [10]: 9.5 ×10⁶ /M/s
Km [3]: > 600 µM
kcat [3]: > 100 s⁻¹
Km [11]: 4 µM
kcat [11]: 38 s⁻¹
kcat/Km [12]: 3.9 ×10⁵ /M/s

CO/N=C(\C(=O)N[C@@H]1C(=O)N2C(C(=O)[O-])=C(C[n+]3cccc4c3CCC4)CS[C@H]12)c1csc(N)n1 [CEFPIROME]
MIC [5]: 0.125 µg/mL (≈ 0.243 µM)
MIC [6]: 0.03 µg/mL (≈ 0.0583 µM)
kcat/Km [1]: 2.7 ×10⁵ /M/s
MIC [7]: 0.5 µg/mL (≈ 0.972 µM)
Km [3]: 85 µM
kcat [3]: 23 s⁻¹
MIC [13]: 4 µg/mL (≈ 7.77 µM)

CC1(C)S[C@@H]2[C@H](NC(=O)[C@H](C(=O)O)c3ccsc3)C(=O)N2[C@H]1C(=O)O [TICARCILLIN]
MIC [5]: 0.125 µg/mL (≈ 0.325 µM)
MIC [6]: 4 µg/mL (≈ 10.4 µM)
MIC [7]: 64 µg/mL (≈ 166 µM)
MIC [13]: 8 µg/mL (≈ 20.8 µM)

CC1(C)S[C@@H]2[C@H](NC(=O)[C@H](N)c3ccccc3)C(=O)N2[C@H]1C(=O)O
kcat/Km [1]: 8.8 ×10⁵ /M/s
kcat/Km [10]: 1.2 ×10⁶ /M/s
Km [3]: 0.72 µM
kcat [3]: 0.63 s⁻¹
Km [11]: 3.5 µM
kcat [11]: 4.2 s⁻¹

CC1(C)S[C@@H]2[C@H](NC(=O)Cc3ccccc3)C(=O)N2[C@H]1C(=O)O [PENICILLIN G]
kcat/Km [1]: 1.4 ×10⁷ /M/s
Km [8]: 8.7 µM
kcat [8]: 5 s⁻¹
Ki [14]: 2 µM
kcat/Km [10]: 1 ×10⁷ /M/s
kcat [3]: 27 s⁻¹
Km [11]: 4.4 µM
kcat [11]: 45 s⁻¹
kcat/Km [12]: 5.7 ×10⁵ /M/s

CC(=O)OCC1=C(C(=O)O)N2C(=O)[C@@H](NC(=O)Cc3cccs3)[C@H]2SC1 [CEPHALOTHIN]
MIC [5]: > 256 µg/mL
MIC [6]: 4 µg/mL (≈ 10.1 µM)
kcat/Km [1]: 1 ×10⁷ /M/s
MIC [7]: 256 µg/mL (≈ 646 µM)
Km [8]: 500 µM
kcat [8]: 540 s⁻¹
kcat/Km [10]: 7 ×10⁶ /M/s
Km [3]: 45 µM
kcat [3]: 470 s⁻¹
Km [11]: 42 µM
kcat [11]: 300 s⁻¹
kcat/Km [12]: 1.1 ×10⁶ /M/s
MIC [13]: > 256 µg/mL

CO/N=C(\C(=O)N[C@@H]1C(=O)N2C(C(=O)O)=C(COC(C)=O)CS[C@H]12)c1csc(N)n1 [CEFOTAXIME]
MIC [5]: 0.032 µg/mL (≈ 0.0703 µM)
MIC [6]: 0.06 µg/mL (≈ 0.132 µM)
kcat/Km [1]: 1.7 ×10⁷ /M/s
MIC [7]: 8 µg/mL (≈ 17.6 µM)
Km [8]: 0.1 µM
kcat [8]: 0.2 s⁻¹
kcat/Km [10]: 1 ×10⁵ /M/s
kcat [3]: 0.015 s⁻¹
Km [11]: 1.7 µM
kcat [11]: 0.17 s⁻¹
kcat/Km [12]: 2 ×10⁶ /M/s
MIC [13]: 32 µg/mL (≈ 70.3 µM)

C[C@H]1[C@H](NC(=O)/C(=N\OC(C)(C)C(=O)O)c2csc(N)n2)C(=O)N1S(=O)(=O)O [AZTREONAM]
Km [3]: > 500 µM
MIC [13]: 0.125 µg/mL (≈ 0.287 µM)

C[C@@H](O)[C@H]1C(=O)N2C(C(=O)O)=C(SCCNC=N)C[C@H]12 [IMIPENEM ANHYDROUS]
MIC [5]: 0.125 µg/mL (≈ 0.418 µM)
MIC [7]: 0.25 µg/mL (≈ 0.835 µM)
Km [3]: > 500 µM
MIC [13]: 0.125 µg/mL (≈ 0.418 µM)

CC1(C)S[C@@H]2[C@H](NC(=O)[C@H](N)c3ccc(O)cc3)C(=O)N2[C@H]1C(=O)O [AMOXICILLIN]
MIC [5]: 2 µg/mL (≈ 5.47 µM)
MIC [6]: 2 µg/mL (≈ 5.47 µM)
MIC [7]: 32 µg/mL (≈ 87.6 µM)
MIC [13]: 4 µg/mL (≈ 10.9 µM)

CC(C)(O/N=C(\C(=O)N[C@@H]1C(=O)N2C(C(=O)[O-])=C(C[n+]3ccccc3)CS[C@H]12)c1csc(N)n1)C(=O)O [CEFTAZIDIME]
MIC [5]: 0.125 µg/mL (≈ 0.229 µM)
MIC [6]: 0.125 µg/mL (≈ 0.229 µM)
kcat/Km [1]: 9.2 ×10⁵ /M/s
MIC [7]: 8 µg/mL (≈ 14.6 µM)
Km [8]: 0.6 µM
kcat [8]: 0.2 s⁻¹
Km [9]: 0.12 µM
kcat [3]: 0.11 s⁻¹
kcat/Km [12]: 3.3 ×10⁵ /M/s
MIC [13]: 16 µg/mL (≈ 29.3 µM)

CO/N=C(\C(=O)N[C@@H]1C(=O)N2C(C(=O)O)=C(COC(N)=O)CS[C@H]12)c1ccco1
kcat/Km [1]: 3.8 ×10⁶ /M/s
kcat/Km [10]: 1 ×10⁶ /M/s
kcat [3]: 0.042 s⁻¹
Km [11]: 0.15 µM
kcat [11]: 0.15 s⁻¹

CO/N=C(\C(=O)N[C@@H]1C(=O)N2C(C(=O)[O-])=C(C[N+]3(C)CCCC3)CS[C@H]12)c1csc(N)n1
MIC [6]: 0.03 µg/mL (≈ 0.0624 µM)
kcat/Km [1]: 2.6 ×10⁴ /M/s
Km [8]: 690 µM
kcat [8]: 2.5 s⁻¹
Km [3]: 360 µM
kcat [3]: 9.4 s⁻¹
kcat/Km [12]: 3.6 ×10³ /M/s
MIC [13]: 2 µg/mL (≈ 4.16 µM)

CCN1CCN(C(=O)N[C@@H](C(=O)N[C@@H]2C(=O)N3[C@@H]2SC(C)(C)[C@@H]3C(=O)O)c2ccccc2)C(=O)C1=O [PIPERACILLIN]
MIC [5]: 0.25 µg/mL (≈ 0.483 µM)
MIC [6]: 1 µg/mL (≈ 1.93 µM)
kcat/Km [1]: 2.7 ×10⁶ /M/s
MIC [7]: 8 µg/mL (≈ 15.5 µM)
Ki [14]: 0.2 µM
kcat [3]: 0.54 s⁻¹
MIC [13]: 4 µg/mL (≈ 7.73 µM)
